{"source": "patent US11920126B2", "about": "“Bio-manufacturing process” (priority 2018, dated 2024)", "key": {"Trichoderma": {"test_system": "Trichoderma", "assay": "Trichoderma-loaded feedstocks co-cultured with engineered Streptomyces", "assay_type": "cell-based", "details": "feedstocks loaded with Trichoderma spores, no production fungus", "description": "The efficacy of inhibitory properties was tested in feedstocks without the addition of the fungus. Feedstocks were loaded with Trichoderma spores, a common mold contaminate. Engineered Streptomyces was then co-cultured in these contaminated feedstocks, and the inhibitory effects were recorded."}, "Ascomycete contaminants": {"test_system": "Ascomycete contaminants", "assay": "natamycin inhibition, in vitro liquid media culture", "assay_type": "cell-based", "details": "cultured in vitro (liquid media)", "text": "Streptomyces natalensis naturally produces low levels of pimaricin, also known as natamycin, which is a fungicide with the ability to bind to sterols found in fungal cell membranes, thus making the cell wall permeable and lysing the cell. This fungicide has greater activity against Ascomycete contaminants, versus production fungi Ganoderma or Trametes. Natamycin's affinity for non-basidiomycetes species make this particular antifungal an attractive target for expression during cultivated manufacturing.\nBy up-regulating the expression of pimM, the total yield of natamycin produced by our Streptomyces natalensis strains was increased. In this respect, natamycin production in wild type Streptomyces natalensis […] the effective range of inhibition (5 ug/mL) when cultured in vitro (liquid media). […] Engineering a bacterium strain with increased natamycin potency helps to reduce the bacterial loading needed for substrate bioburden mitigation, thus further reducing process and material cost."}}}
{"compound": "C[C@@H]1C/C=C/C=C/C=C/C=C/[C@H](O[C@@H]2O[C@H](C)[C@@H](O)[C@H](N)[C@@H]2O)C[C@@H]2O[C@](O)(C[C@@H](O)C[C@H]3O[C@@H]3/C=C/C(=O)O1)C[C@H](O)[C@H]2C(=O)O", "note": "[natamycin]", "values": [{"measurement": "inhibitory effect of Trichoderma in feedstocks as a function of natamycin expression", "setting": "Trichoderma", "result": "strong linear inhibitory effect"}, {"measurement": "effective range of inhibition", "setting": "Ascomycete contaminants", "result": 5, "unit": "µg/mL"}]}
